Among the data in US10538555B2, “Macrocyclic inhibitors of the PD-1/PD-L1 and CD80(B7-1)/PD-L1 protein/protein interactions” (BRISTOL-MYERS SQUIBB COMPANY, priority 2014, dated 2020) are IC50 values, retold here.

The experiment has as its target T1, Human PD-L1/PD-1 (Homo sapiens, UniProt Q9NZQ7).
T1 construct: TVMV protease cleavage site (C); made in house; host or cells: HEK293T cells
Kind of experiment: HTRF Human PD-L1/PD-1 binding assay (PD-1-Ig/PD-L1-His). The following applies: PD-L1-His 10 nM, PD-1-Ig 20 nM. An outline of the steps:
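Step 1: compound with PD-L1-His (10 nM final), 15 min. Step 2: PD-1-Ig (20 nM final), 15 min. Step 3: Eu-cryptate anti-Ig (1 nM) plus APC anti-His (20 nM), 30 min equilibration. Signal taken as 665 nm/620 nm ratio.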
In general terms: In TR-FRET formats the signal depends on donor and acceptor labels being close together.

The mark [1] stands for this setting: class symbol, read-out: HTRF Human PD-L1/PD-1 Binding Assay IC50 Range.

Structures are written as SMILES. Like-named read-outs stand apart in the source and are kept apart here. *1 amine or outer side, *2 acyl side, *3 side chain or, on linkers, in order; H or OH if unused. Where a SMILES comes first, the peptide text is derived from it. Bridges are numbered along the chain shown (N, C = ends). [ ]: non-standard residue; d: D form. Phe(3,4,5-F3) = N[C@@H](Cc1cc(F)c(F)c(F)c1)C(=O)O; NMePhe(4-F) = CN[C@@H](Cc1ccc(F)cc1)C(=O)O; d(cisHyp) = O=C(O)[C@H]1C[C@@H](O)CN1; NMeY = CN[C@@H](Cc1ccc(O)cc1)C(=O)O; NMeF = CN[C@@H](Cc1ccccc1)C(=O)O; X1 = O=C([C@H]1COCCN1[*:1])[*:2]; NMeNle = CCCC[C@H](NC)C(=O)O; dPip = O=C(O)[C@H]1CCCCN1; Orn = NCCC[C@H](N)C(=O)O; Dab = NCC[C@H](N)C(=O)O; Dap = NC[C@H](N)C(=O)O

T1 sequence (Q9NZQ7 with tags, fused parts or gaps): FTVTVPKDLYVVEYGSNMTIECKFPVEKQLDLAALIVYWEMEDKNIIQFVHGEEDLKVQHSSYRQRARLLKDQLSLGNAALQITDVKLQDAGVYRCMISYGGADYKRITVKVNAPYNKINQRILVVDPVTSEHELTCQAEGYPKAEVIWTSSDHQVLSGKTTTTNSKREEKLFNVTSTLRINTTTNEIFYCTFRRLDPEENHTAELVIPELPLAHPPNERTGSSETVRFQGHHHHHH

`CC(C)C[C@@H]1NC(=O)[C@H](Cc2ccc(O)cc2)NC(=O)[C@H](Cc2c[nH]c3ccccc23)NC(=O)[C@H]2CCCCN2C(=O)[C@H](CCC(=O)O)NC(=O)[C@H](Cc2ccccc2)N(C)C(=O)[C@H](C(C)C)NC(=O)[C@H](CC(=O)O)NC(=O)[C@H]2CCCN2C(=O)[C@H](Cc2ccc(O)cc2)N(C)C(=O)[C@H](Cc2ccc(F)cc2)N(C)C(=O)[C@H](Cc2cc(F)c(F)c(F)c2)NC(=O)CSC[C@@H](C(=O)NCC(N)=O)NC1=O` [Example 10611] ({CH2CO}-[Phe(3,4,5-F3)][NMePhe(4-F)][NMeY][dP]DV[NMeF]E[dPip]WYLCG-NH2; thioether N-13): the IC50 under setting [1] lay in the range of 1 to 9.9 nM. Consider `CCCC[C@H]1C(=O)N2C[C@H](O)C[C@@H]2C(=O)N[C@@H](CC(=O)O)C(=O)N[C@@H](C(C)C)C(=O)N(C)[C@@H](Cc2ccccc2)C(=O)N[C@@H](CCC(=O)O)C(=O)N2C[C@H](O)C[C@@H]2C(=O)N[C@@H](Cc2c[nH]c3ccccc23)C(=O)N[C@@H](Cc2ccc(O)cc2)C(=O)N[C@@H](CCCN)C(=O)N[C@H](C(=O)NCC(N)=O)CSCC(=O)N[C@@H](Cc2cc(F)c(F)c(F)c2)C(=O)N(C)[C@@H](Cc2ccc(F)cc2)C(=O)N1C` [Example 10612] ({CH2CO}-[Phe(3,4,5-F3)][NMePhe(4-F)][NMeNle][d(cisHyp)]DV[NMeF]E[d(cisHyp)]WY[Orn]CG-NH2; thioether N-13), for which, under setting [1], the IC50 lay within 1 to 9.9 nM. For the compound `CCCC[C@H]1C(=O)N2C[C@H](O)C[C@@H]2C(=O)N[C@@H](CC(=O)O)C(=O)N[C@@H](C(C)C)C(=O)N(C)[C@@H](Cc2ccccc2)C(=O)N[C@@H](CCN)C(=O)N2C[C@H](O)C[C@@H]2C(=O)N[C@@H](Cc2c[nH]c3ccccc23)C(=O)N[C@@H](Cc2ccc(O)cc2)C(=O)N[C@@H](CCCN)C(=O)N[C@H](C(=O)NCC(N)=O)CSCC(=O)N[C@@H](Cc2cc(F)c(F)c(F)c2)C(=O)N(C)[C@@H](Cc2ccc(F)cc2)C(=O)N1C` [Example 10613] ({CH2CO}-[Phe(3,4,5-F3)][NMePhe(4-F)][NMeNle][d(cisHyp)]DV[NMeF][Dab][d(cisHyp)]WY[Orn]CG-NH2; thioether N-13), the IC50 under setting [1] was 1 to 9.9 nM. In the case of `CC(C)C[C@@H]1NC(=O)[C@H](Cc2ccc(O)cc2)NC(=O)[C@H](Cc2c[nH]c3ccccc23)NC(=O)[C@H]2CCCCN2C(=O)[C@H](CCC(=O)O)NC(=O)[C@H](Cc2ccccc2)N(C)C(=O)[C@H](C(C)C)NC(=O)[C@H](CC(=O)O)NC(=O)[C@H]2CCCN2C(=O)[C@H](Cc2ccccc2)N(C)C(=O)[C@H](Cc2ccc(F)cc2)N(C)C(=O)[C@H](Cc2cc(F)c(F)c(F)c2)NC(=O)CSC[C@@H](C(=O)NCC(N)=O)NC1=O` [Example 10614] ({CH2CO}-[Phe(3,4,5-F3)][NMePhe(4-F)][NMeF][dP]DV[NMeF]E[dPip]WYLCG-NH2; thioether N-13), the IC50 under setting [1] lay within 10 to 99.9 nM. In the case of `CCCC[C@H]1C(=O)N2CCC[C@@H]2C(=O)N[C@@H](CC(=O)O)C(=O)N[C@@H](C(C)C)C(=O)N(C)[C@@H](Cc2ccccc2)C(=O)N[C@@H](CCC(=O)O)C(=O)N2CCOC[C@@H]2C(=O)N[C@@H](Cc2c[nH]c3ccccc23)C(=O)N[C@@H](Cc2ccc(O)cc2)C(=O)N[C@@H](CC(C)C)C(=O)N[C@H](C(=O)NCC(N)=O)CSCC(=O)N[C@@H](Cc2cc(F)c(F)c(F)c2)C(=O)N(C)[C@@H](Cc2ccc(O)cc2)C(=O)N1C` [Example 10615] ({CH2CO}-[Phe(3,4,5-F3)][NMeY][NMeNle][dP]DV[NMeF]E[X1]WYLCG-NH2; thioether N-13), the IC50 under setting [1] was 10 to 99.9 nM.

For the compound `CCCC[C@H]1C(=O)N2CCC[C@@H]2C(=O)N[C@@H](CC(=O)O)C(=O)N[C@@H](C(C)C)C(=O)N(C)[C@@H](Cc2ccccc2)C(=O)N[C@@H](CCC(=O)O)C(=O)N2CCOC[C@@H]2C(=O)N[C@@H](Cc2c[nH]c3ccccc23)C(=O)N[C@@H](Cc2ccc(O)cc2)C(=O)N[C@@H](CCN)C(=O)N[C@H](C(=O)NCC(N)=O)CSCC(=O)N[C@@H](Cc2cc(F)c(F)c(F)c2)C(=O)N(C)[C@@H](Cc2ccc(O)cc2)C(=O)N1C` [Example 10616] ({CH2CO}-[Phe(3,4,5-F3)][NMeY][NMeNle][dP]DV[NMeF]E[X1]WY[Dab]CG-NH2; thioether N-13), the IC50 (read-out: HTRF Human PD-L1/PD-1 Binding Assay IC50) worked out at 10.6 nM.

For the compound `CCCC[C@H]1C(=O)N2CCC[C@@H]2C(=O)N[C@@H](CC(=O)O)C(=O)N[C@@H](C(C)C)C(=O)N(C)[C@@H](Cc2ccccc2)C(=O)N[C@@H](CCC(=O)O)C(=O)N2CCOC[C@@H]2C(=O)N[C@@H](Cc2c[nH]c3ccccc23)C(=O)N[C@@H](Cc2ccc(O)cc2)C(=O)N[C@@H](CN)C(=O)N[C@H](C(=O)NCC(N)=O)CSCC(=O)N[C@@H](Cc2cc(F)c(F)c(F)c2)C(=O)N(C)[C@@H](Cc2ccc(O)cc2)C(=O)N1C` [Example 10617] ({CH2CO}-[Phe(3,4,5-F3)][NMeY][NMeNle][dP]DV[NMeF]E[X1]WY[Dap]CG-NH2; thioether N-13), the IC50 under setting [1] is 10 to 99.9 nM.

Turning to `CCCC[C@H]1C(=O)N2CCC[C@@H]2C(=O)N[C@@H](CC(=O)O)C(=O)N[C@@H](C(C)C)C(=O)N(C)[C@@H](Cc2ccccc2)C(=O)N[C@@H](CCC(=O)O)C(=O)N2CCOC[C@@H]2C(=O)N[C@@H](Cc2c[nH]c3ccccc23)C(=O)N[C@@H](Cc2ccc(O)cc2)C(=O)N[C@@H](CCCN)C(=O)N[C@H](C(=O)NCC(N)=O)CSCC(=O)N[C@@H](Cc2cc(F)c(F)c(F)c2)C(=O)N(C)[C@@H](Cc2ccc(O)cc2)C(=O)N1C` [Example 10618] ({CH2CO}-[Phe(3,4,5-F3)][NMeY][NMeNle][dP]DV[NMeF]E[X1]WY[Orn]CG-NH2; thioether N-13), the IC50 under setting [1] lay within 10 to 99.9 nM. Consider `CCCC[C@H]1C(=O)N2CCC[C@@H]2C(=O)N[C@@H](CC(=O)O)C(=O)N[C@@H](C(C)C)C(=O)N(C)[C@@H](Cc2ccccc2)C(=O)N[C@@H](CCC(=O)O)C(=O)N2CCOC[C@@H]2C(=O)N[C@@H](Cc2c[nH]c3ccccc23)C(=O)N[C@@H](Cc2ccc(O)cc2)C(=O)N[C@@H](CCC(N)=O)C(=O)N[C@H](C(=O)NCC(N)=O)CSCC(=O)N[C@@H](Cc2cc(F)c(F)c(F)c2)C(=O)N(C)[C@@H](Cc2ccc(O)cc2)C(=O)N1C` [Example 10619] ({CH2CO}-[Phe(3,4,5-F3)][NMeY][NMeNle][dP]DV[NMeF]E[X1]WYQCG-NH2; thioether N-13), for which the IC50 under setting [1] was 10 to 99.9 nM.

On to `CCCC[C@H]1C(=O)N2CCC[C@@H]2C(=O)N[C@@H](CC(=O)O)C(=O)N[C@@H](C(C)C)C(=O)N(C)[C@@H](Cc2ccccc2)C(=O)N[C@@H](CCN)C(=O)N2CCOC[C@@H]2C(=O)N[C@@H](Cc2c[nH]c3ccccc23)C(=O)N[C@@H](Cc2ccc(O)cc2)C(=O)N[C@@H](CC(C)C)C(=O)N[C@H](C(=O)NCC(N)=O)CSCC(=O)N[C@@H](Cc2cc(F)c(F)c(F)c2)C(=O)N(C)[C@@H](Cc2ccc(O)cc2)C(=O)N1C` [Example 10622] ({CH2CO}-[Phe(3,4,5-F3)][NMeY][NMeNle][dP]DV[NMeF][Dab][X1]WYLCG-NH2; thioether N-13), for which, under setting [1], the IC50 lay in the range of 10 to 99.9 nM. Still for that read-out and setting: the same measure for `CCCC[C@H]1C(=O)N2CCC[C@@H]2C(=O)N[C@@H](CC(=O)O)C(=O)N[C@@H](C(C)C)C(=O)N(C)[C@@H](Cc2ccccc2)C(=O)N[C@@H](CCN)C(=O)N2CCOC[C@@H]2C(=O)N[C@@H](Cc2c[nH]c3ccccc23)C(=O)N[C@@H](Cc2ccc(O)cc2)C(=O)N[C@@H](CCN)C(=O)N[C@H](C(=O)NCC(N)=O)CSCC(=O)N[C@@H](Cc2cc(F)c(F)c(F)c2)C(=O)N(C)[C@@H](Cc2ccc(O)cc2)C(=O)N1C` [Example 10623] ({CH2CO}-[Phe(3,4,5-F3)][NMeY][NMeNle][dP]DV[NMeF][Dab][X1]WY[Dab]CG-NH2; thioether N-13): 1 to 9.9 nM; for `CCCC[C@H]1C(=O)N2CCC[C@@H]2C(=O)N[C@@H](CC(=O)O)C(=O)N[C@@H](C(C)C)C(=O)N(C)[C@@H](Cc2ccccc2)C(=O)N[C@@H](CCN)C(=O)N2CCOC[C@@H]2C(=O)N[C@@H](Cc2c[nH]c3ccccc23)C(=O)N[C@@H](Cc2ccc(O)cc2)C(=O)N[C@@H](CCC(=O)O)C(=O)N[C@H](C(=O)NCC(N)=O)CSCC(=O)N[C@@H](Cc2cc(F)c(F)c(F)c2)C(=O)N(C)[C@@H](Cc2ccc(O)cc2)C(=O)N1C` [Example 10624] ({CH2CO}-[Phe(3,4,5-F3)][NMeY][NMeNle][dP]DV[NMeF][Dab][X1]WYECG-NH2; thioether N-13): 10 to 99.9 nM. As to `CCCC[C@H]1C(=O)N2CCC[C@@H]2C(=O)N[C@@H](CC(=O)O)C(=O)N[C@@H](C(C)C)C(=O)N(C)[C@@H](Cc2ccccc2)C(=O)N[C@@H](CCN)C(=O)N2CCOC[C@@H]2C(=O)N[C@@H](Cc2c[nH]c3ccccc23)C(=O)N[C@@H](Cc2ccc(O)cc2)C(=O)N[C@@H](CCCN)C(=O)N[C@H](C(=O)NCC(N)=O)CSCC(=O)N[C@@H](Cc2cc(F)c(F)c(F)c2)C(=O)N(C)[C@@H](Cc2ccc(O)cc2)C(=O)N1C` [Example 10625] ({CH2CO}-[Phe(3,4,5-F3)][NMeY][NMeNle][dP]DV[NMeF][Dab][X1]WY[Orn]CG-NH2; thioether N-13), the IC50 under setting [1] lay within 10 to 99.9 nM. As to `CCCC[C@H]1C(=O)N2CCC[C@@H]2C(=O)N[C@@H](CC(=O)O)C(=O)N[C@@H](C(C)C)C(=O)N(C)[C@@H](Cc2ccccc2)C(=O)N[C@@H](CCN)C(=O)N2CCOC[C@@H]2C(=O)N[C@@H](Cc2c[nH]c3ccccc23)C(=O)N[C@@H](Cc2ccc(O)cc2)C(=O)N[C@@H](CCC(N)=O)C(=O)N[C@H](C(=O)NCC(N)=O)CSCC(=O)N[C@@H](Cc2cc(F)c(F)c(F)c2)C(=O)N(C)[C@@H](Cc2ccc(O)cc2)C(=O)N1C` [Example 10626] ({CH2CO}-[Phe(3,4,5-F3)][NMeY][NMeNle][dP]DV[NMeF][Dab][X1]WYQCG-NH2; thioether N-13), under setting [1], the IC50 was 10 to 99.9 nM.
